From PubChem BioAssay AID1259407 (Chemical Carcinogenesis Research Information System (CCRIS), 2018) come the findings set out here.

The structures appear in SMILES notation. Active and inactive are the calls of the source. The rule behind the calls is not given here.

The data set deals with CCRIS mutagenicity, Ames/micronucleus/aberration tests. Kind of data set: CCRIS mutagenicity studies.
The mark [1] stands for this setting: Test System: AMES SALMONELLA TYPHIMURIUM, Strain/Indicator: TA98, Metabolic Activation: NONE, Method: PREINCUBATION

With `COc1ccc(CCC(=O)c2c(O)cc(O[C@@H]3O[C@H](CO)[C@@H](O)[C@H](O)[C@H]3O[C@@H]3O[C@@H](C)[C@H](O)[C@@H](O)[C@H]3O)cc2O)cc1O`, the mutagenic call runs as follows: (Test System: AMES SALMONELLA TYPHIMURIUM, Strain/Indicator: TA97, Metabolic Activation: HAMSTER, LIVER, S-9, AROCLOR 1254 (10 OR 30%), Method: PREINCUBATION) “inactive; negative”; (Test System: AMES SALMONELLA TYPHIMURIUM, Strain/Indicator: TA97, Metabolic Activation: NONE, Method: PREINCUBATION) “inactive; negative”; (Test System: AMES SALMONELLA TYPHIMURIUM, Strain/Indicator: TA97, Metabolic Activation: RAT, LIVER, S-9, AROCLOR 1254 (10 OR 30%), Method: PREINCUBATION) “inactive; negative”; (Test System: AMES SALMONELLA TYPHIMURIUM, Strain/Indicator: TA98, Metabolic Activation: HAMSTER, LIVER, S-9, AROCLOR 1254 (10 OR 30%), Method: PREINCUBATION) “inactive; negative”; under setting [1], “inactive; negative”; (Test System: AMES SALMONELLA TYPHIMURIUM, Strain/Indicator: TA98, Metabolic Activation: RAT, LIVER, S-9, AROCLOR 1254 (10 OR 30%), Method: PREINCUBATION) “inactive; negative”. Moreover, the mutagenic call (Test System: AMES SALMONELLA TYPHIMURIUM, Strain/Indicator: TA100, Metabolic Activation: HAMSTER, LIVER, S-9, AROCLOR 1254 (10 OR 30%), Method: PREINCUBATION) was “inactive; negative”; the mutagenic call (Test System: AMES SALMONELLA TYPHIMURIUM, Strain/Indicator: TA100, Metabolic Activation: NONE, Method: PREINCUBATION) is “inactive; negative”; the mutagenic call (Test System: AMES SALMONELLA TYPHIMURIUM, Strain/Indicator: TA100, Metabolic Activation: RAT, LIVER, S-9, AROCLOR 1254 (10 OR 30%), Method: PREINCUBATION) was “inactive; negative”; the mutagenic call (Test System: AMES SALMONELLA TYPHIMURIUM, Strain/Indicator: TA1535, Metabolic Activation: HAMSTER, LIVER, S-9, AROCLOR 1254 (10 OR 30%), Method: PREINCUBATION) is “inactive; negative”; the mutagenic call (Test System: AMES SALMONELLA TYPHIMURIUM, Strain/Indicator: TA1535, Metabolic Activation: NONE, Method: PREINCUBATION) is “inactive; negative”; the mutagenic call (Test System: AMES SALMONELLA TYPHIMURIUM, Strain/Indicator: TA1535, Metabolic Activation: RAT, LIVER, S-9, AROCLOR 1254 (10 OR 30%), Method: PREINCUBATION) is “inactive; negative”.

Regarding `O=[N+]([O-])c1ccc2c(c1)-c1ccccc1C2`, the mutagenic call by setting is: (End Point: IN VITRO CHROMOSOMAL ABERRATIONS, Test System: CHINESE HAMSTER LUNG (CHL) CELLS, Metabolic Activation: NONE) “inactive; negative”; (End Point: IN VITRO CHROMOSOMAL ABERRATIONS, Test System: CHINESE HAMSTER LUNG (CHL) CELLS, Metabolic Activation: RAT, LIVER, S-9, KC-400) “active; positive”; (Test System: AMES SALMONELLA TYPHIMURIUM, Strain/Indicator: TA98 (1,8-DNP6), Metabolic Activation: NONE, Method: PREINCUBATION) “active; positive”; (Test System: AMES SALMONELLA TYPHIMURIUM, Strain/Indicator: TA98(NR), Metabolic Activation: NONE, Method: PREINCUBATION) “active; positive”; (Test System: AMES SALMONELLA TYPHIMURIUM, Strain/Indicator: TA98(NR), Metabolic Activation: RAT LIVER S-9 (10%), Method: PREINCUBATION) “active; positive”; (Test System: AMES SALMONELLA TYPHIMURIUM, Strain/Indicator: TA98 (NR), Metabolic Activation: RAT LIVER S-9, 3-METHYLCHOLANTHRENE (10%), Method: PREINCUBATION) “active; positive”. The mutagenic call runs as follows: (Test System: AMES SALMONELLA TYPHIMURIUM, Strain/Indicator: TA98(NR), Metabolic Activation: RAT LIVER S-9, BETA-NAPHTHAFLAVONE (10%), Method: PREINCUBATION) “active; positive”; (Test System: AMES SALMONELLA TYPHIMURIUM, Strain/Indicator: TA98(NR), Metabolic Activation: RAT LIVER S-9, PCB (10%), Method: PREINCUBATION) “active; positive”; (Test System: AMES SALMONELLA TYPHIMURIUM, Strain/Indicator: TA98(NR), Metabolic Activation: RAT LIVER S-9, PHENOBARBITAL (10%), Method: PREINCUBATION) “active; positive”; under setting [1], “active; positive”.
